Data published in patent US9994518B2, “Alpha-7 nicotinic acetylcholine receptor modulators and uses thereof” (MERCK SHARP & DOHME CORP., priority 2014, dated 2018).

target: T1, α7 nAChR (rat α7/CHO cells) (Rattus norvegicus, UniProt Q05941); experiment: Evaluation of modulators of α7 nAChRs using the IonFlux HT automated patch clamp system (potentiation of EC20 ACh-evoked currents); format: cell-based; conditions: percent potentiation of ACh (EC20, approx. 60 μM) response in α7/CHO cells; 6-point dose response 0.03-10 μM; whole cell patch clamp
T1 construct: expressed in transfected cells; host or cells: CHO cells (α7/CHO)
T1 sequence (Q05941 23-502): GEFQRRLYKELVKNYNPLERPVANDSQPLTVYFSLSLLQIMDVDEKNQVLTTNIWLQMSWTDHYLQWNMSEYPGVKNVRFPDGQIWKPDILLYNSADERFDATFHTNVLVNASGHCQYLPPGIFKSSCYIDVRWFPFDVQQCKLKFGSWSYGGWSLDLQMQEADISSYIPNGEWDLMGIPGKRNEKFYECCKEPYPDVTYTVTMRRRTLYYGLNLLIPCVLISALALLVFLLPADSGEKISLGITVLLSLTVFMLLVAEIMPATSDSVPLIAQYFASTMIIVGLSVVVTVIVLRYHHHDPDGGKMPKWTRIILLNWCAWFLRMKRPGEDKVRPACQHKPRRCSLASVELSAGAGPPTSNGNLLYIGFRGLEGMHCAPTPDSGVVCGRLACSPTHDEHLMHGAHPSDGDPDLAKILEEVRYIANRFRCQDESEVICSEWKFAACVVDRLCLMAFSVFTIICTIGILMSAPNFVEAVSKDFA
Protocol: Evaluation of Modulators of α7 nAChRs Using the IonFlux^HT Automated Patch Clamp System
Acetylcholine was freshly prepared for each plate run and used at an EC20 concentration (approximately 60 μM for rat α7/CHO) to induce α7 nAChR currents on the IonFlux^HT. To prepare the ACh solution for a single plate, 6 μl of the 100 mM ACh stock was diluted into 10 ml of 0.3% DMSO/external solution
Test compounds were prepared for a 6-point dose response from 0.03-10 μM. Working stocks were prepared from serial dilutions of 10 mM DMSO stock solutions to give a final DMSO concentration of 0.3%. 80 μl of the final concentration of each compound was added to the appropriate wells in an IonFlux^HT assay plate.
2×T175 flasks of α7/CHO cells (˜60-70% confluent) were washed twice with PBS and trypsinized (2 ml) for 3.5 minutes at 37° C./5% CO2. Cells were collected in F-12K complete media, counted and the number required for the assay was calculated, for example, 2×10^6 cells in a final volume of 670 μl of external solution were required to load one zone (one quarter) of an IonFlux^HT assay plate. The correct number of cells was pelleted by centrifuge, the supernatant was discarded and the cell pellet was resuspend in external solution at the required concentration so that cells were added in a volume of 80 μl per well to the IonFlux^HT assay plate.
Calculation of the Effect of Compounds on ACh Mediated Currents in α7 nAChRs:
The effect of test compounds on EC20 ACh-evoked currents was calculated by the formula: […]
The rinse protocol was the initial step in preparation of the IonFlux^HT plate. 80 μl of MilliQ water was added to every well (except Out wells) and the IonFlux^HT assay plate was run through the water rinse protocol on the machine. At the end of the run, the water was discarded from the wells. This action was repeated twice.
Briefly, to prepare the plate for the assay aliquots of cells, compounds and internal and external solutions were added to wells of the prepared IonFlux^HT plate (80 μl/well) (solutions made to manufacturer's specifications). Automated whole cell patch-clamp recordings were made using the standard IonFlux^HT single application protocol. Vacuum was held at 6 psi/hg throughout the experiment and membrane potential was held at −80 mV for 35 sec and then at −60 mV during data acquisition. Two ACh (EC20) pulses were applied at the beginning of the assay, 90 seconds apart, to provide an ACh baseline response then cells were perfused with modulators for 89 sec before ACh (EC20) was applied for 1 s. The calculation of percent potentiation of the acetylcholine response for each well was performed by the data analysis software supplied with the IonFlux^HT.
The following compounds were tested in accordance with the above-procedure for activity and the EC50 values determined are reported: […]

| EC50 | SMILES |
| --- | --- |
| 1.14 µM | NS(=O)(=O)c1ccc([C@@H]2C[C@H]2COc2ccc(F)cc2C(F)(F)F)cc1 (single isomer, unassigned) [Exp. 38] |
| 3.3 µM | Cc1ncccc1OC[C@H]1[C@H](c2ccc(NS(N)(=O)=O)cc2)C1(C)C (single isomer, unassigned) [Exp. 20] |
| 0.429 µM | CC1(C)[C@@H](COc2ccc(F)cc2C(F)(F)F)[C@@H]1c1ccc(S(N)(=O)=O)cc1 (single isomer, unassigned) [Exp. 10] |
| 0.452 µM | COc1ccc(Cl)cc1SC[C@@H]1[C@@H](c2ccc(S(N)(=O)=O)cc2)C1(C)C (single isomer, unassigned) [Exp. 14] |
| 3.1 µM | CC1(C)[C@H](COc2ccc(F)cc2C#N)[C@H]1c1ccc(S(N)(=O)=O)cc1 (single isomer, unassigned) [Exp. 28] |
| > 10 µM | Cc1ncc(OC[C@H]2[C@H](c3ccc(S(N)(=O)=O)cc3)C2(C)C)cn1 (single isomer, unassigned) [Exp. 56] |
| 1.05 µM | Cc1cc(F)ccc1OC[C@H]1[C@H](c2ccc(NS(C)(=O)=O)cc2)C1(C)C (single isomer, unassigned) [Exp. 7] |
| 1.35 µM | COc1ccc(Cl)cc1OC[C@@H]1[C@@H](c2ccc(S(N)(=O)=O)cc2)C1(C)C (single isomer, unassigned) [Exp. 12] |
| 6 µM | N#Cc1cc(F)ccc1OC[C@@H]1C[C@H]1c1ccc(S(N)(=O)=O)cc1 (single isomer, unassigned) [Exp. 37] |
| 0.701 µM | NS(=O)(=O)c1ccc([C@H]2C[C@@H]2COc2ccc(F)cc2C(F)(F)F)cc1 (single isomer, unassigned) [Exp. 46] |
| 0.07 µM | Cc1ccc(SC[C@H]2[C@H](c3ccc(S(N)(=O)=O)cc3)C2(C)C)cc1 (single isomer, unassigned) [Exp. 13] |
| 2.19 µM | COc1ccc(Cl)cc1OC[C@@H]1C[C@@H]1c1ccc(S(N)(=O)=O)cc1 (single isomer, unassigned) [Exp. 53] |
| 2.51 µM | N#Cc1cc(F)ccc1OC[C@H]1C[C@@H]1c1ccc(S(N)(=O)=O)cc1 (single isomer, unassigned) [Exp. 45] |
| 2.52 µM | COc1cc(F)ccc1OC[C@H]1[C@H](c2ccc(S(N)(=O)=O)cc2)C1(C)C (single isomer, unassigned) [Exp. 30] |
| 0.906 µM | COc1cc(F)ccc1OC[C@H]1[C@H](c2ccc(NS(N)(=O)=O)cc2)C1(C)C (single isomer, unassigned) [Exp. 24] |
| 0.596 µM | COc1ccc(OC[C@H]2[C@H](c3ccc(NS(C)(=O)=O)cc3)C2(C)C)cn1 (single isomer, unassigned) [Exp. 6] |
| 0.19 µM | COc1ccc(Cl)cc1CC[C@H]1[C@H](c2ccc(S(N)(=O)=O)cc2)C12CCCC2 (single isomer, unassigned) [Exp. 50] |
| 2.3 µM | Cc1ccc(OC[C@H]2[C@H](c3ccc(NS(N)(=O)=O)cc3)C2(C)C)cn1 (single isomer, unassigned) [Exp. 18] |
| 0.811 µM | CC1(C)[C@@H](COc2ccc(F)cc2C#N)[C@@H]1c1ccc(S(N)(=O)=O)cc1 (single isomer, unassigned) [Exp. 32] |
| 3.88 µM | COc1ccc(OC[C@@H]2[C@@H](c3ccc(S(N)(=O)=O)cc3)C2(C)C)c(OC)n1 (single isomer, unassigned) [Exp. 21] |
| 0.546 µM | Cc1ccc(OC[C@H]2[C@H](c3ccc(S(N)(=O)=O)cc3)C2(C)C)cn1 (single isomer, unassigned) [Exp. 33] |
| 0.743 µM | CC1(C)[C@H](COc2cc(F)ccc2OC(F)F)[C@H]1c1ccc(S(N)(=O)=O)cc1 (single isomer, unassigned) [Exp. 22] |
| 5.36 µM | COc1ccc(OC[C@@H]2C[C@H]2c2ccc(S(N)(=O)=O)cc2)c(OC)n1 (single isomer, unassigned) [Exp. 39] |
| 1.47 µM | CC1(C)[C@H](COc2ccc(Cl)cn2)[C@H]1c1ccc(S(N)(=O)=O)cc1 (single isomer, unassigned) [Exp. 55] |
| > 10 µM | N#Cc1cc(F)ccc1OC[C@@H]1C[C@@H]1c1ccc(S(N)(=O)=O)cc1 (single isomer, unassigned) [Exp. 58] |
| 2.59 µM | COc1cc(F)ccc1OC[C@@H]1C[C@H]1c1ccc(S(N)(=O)=O)cc1 (single isomer, unassigned) [Exp. 41] |

| EC50 | SMILES |
| --- | --- |
| 1.56 µM | COc1ccc(F)cc1OC[C@@H]1[C@@H](c2ccc(S(N)(=O)=O)cc2)C1(C)C (single isomer, unassigned) [Exp. 43] |
| 0.054 µM | COc1ccc(Cl)cc1CC[C@H]1[C@H](c2ccc(S(N)(=O)=O)cc2)C1(C)C (single isomer, unassigned) [Exp. 52] |
| 0.395 µM | Cc1cc(F)ccc1OC[C@@H]1[C@@H](c2ccc(S(N)(=O)=O)cc2)C1(C)C (single isomer, unassigned) [Exp. 35] |
| 0.626 µM | COc1ccc(Cl)cc1CC[C@H]1C[C@@H]1c1ccc(S(N)(=O)=O)cc1 (single isomer, unassigned) [Exp. 51] |
| 0.075 µM | Cc1ccc(SC[C@@H]2[C@@H](c3ccc(S(N)(=O)=O)cc3)C2(C)C)cc1 (single isomer, unassigned) [Exp. 15] |
| 0.625 µM | CC1(C)[C@H](COc2ccccc2OC(F)F)[C@H]1c1ccc(S(N)(=O)=O)cc1 (single isomer, unassigned) [Exp. 42] |
| 0.193 µM | COc1ccc(Cl)cc1OC[C@H]1[C@H](c2ccc(NS(C)(=O)=O)cc2)C1(C)C (single isomer, unassigned) [Exp. 5] |
| 0.125 µM | COc1ccc(Cl)cc1SC[C@H]1[C@H](c2ccc(S(N)(=O)=O)cc2)C1(C)C (single isomer, unassigned) [Exp. 16] |
| 3.97 µM | Cc1ccc(OC[C@@H]2[C@@H](c3ccc(S(N)(=O)=O)cc3)C2(C)C)cn1 (single isomer, unassigned) [Exp. 27] |
| 1.24 µM | COc1cc(F)ccc1OC[C@@H]1[C@@H](c2ccc(S(N)(=O)=O)cc2)C1(C)C (single isomer, unassigned) [Exp. 29] |
| 0.517 µM | Cc1cc(F)ccc1OC[C@H]1[C@H](c2ccc(NS(N)(=O)=O)cc2)C1(C)C (single isomer, unassigned) [Exp. 8] |
| 1.62 µM | Cc1ncccc1OC[C@H]1[C@H](c2ccc(S(N)(=O)=O)cc2)C1(C)C (single isomer, unassigned) [Exp. 34] |
| 2.94 µM | COc1cc(F)ccc1OC[C@H]1C[C@@H]1c1ccc(S(N)(=O)=O)cc1 (single isomer, unassigned) [Exp. 44] |
| 1.75 µM | Cc1ccc(F)cc1OC[C@H]1[C@H](c2ccc(NS(N)(=O)=O)cc2)C1(C)C (single isomer, unassigned) [Exp. 9] |
| 0.606 µM | COc1ccc(OC[C@H]2[C@H](c3ccc(S(N)(=O)=O)cc3)C2(C)C)c(OC)n1 (single isomer, unassigned) [Exp. 26] |
| 4.16 µM | CC1(C)[C@@H](COc2cccnc2)[C@@H]1c1ccc(S(N)(=O)=O)cc1 (single isomer, unassigned) [Exp. 25] |
| 0.2 µM | Cc1cc(F)ccc1OC[C@H]1[C@H](c2ccc(S(N)(=O)=O)cc2)C1(C)C (single isomer, unassigned) [Exp. 31] |
| 0.124 µM | COc1ccc(Cl)cc1CC[C@@H]1[C@@H](c2ccc(S(N)(=O)=O)cc2)C1(C)C (single isomer, unassigned) [Exp. 54] |
| 0.064 µM | COc1ccc(Cl)cc1CC[C@@H]1[C@@H](c2ccc(S(N)(=O)=O)cc2)C12CCCC2 (single isomer, unassigned) [Exp. 49] |
| 0.35 µM | Cc1ncccc1OC[C@H]1[C@H](c2ccc(NS(C)(=O)=O)cc2)C1(C)C (single isomer, unassigned) [Exp. 19] |
| 1.06 µM | COc1ccc(Cl)cc1OC[C@@H]1C[C@H]1c1ccc(S(N)(=O)=O)cc1 (single isomer, unassigned) [Exp. 40] |
| 4.36 µM | COc1ccc(OC[C@H]2[C@H](c3ccc(NS(N)(=O)=O)cc3)C2(C)C)cn1 (single isomer, unassigned) [Exp. 17] |
| 3.7 µM | COc1ccc(Cl)cc1OC[C@H]1C[C@@H]1c1ccc(S(N)(=O)=O)cc1 (single isomer, unassigned) [Exp. 47] |
| 0.164 µM | COc1ccc(F)cc1OC[C@H]1[C@H](c2ccc(S(N)(=O)=O)cc2)C1(C)C (single isomer, unassigned) [Exp. 36] |
| > 10 µM | CC1(C)[C@@H](COc2cncnc2)[C@@H]1c1ccc(S(N)(=O)=O)cc1 (single isomer, unassigned) [Exp. 57] |
